{"source": "patent US6787318B1", "about": "“Assay for evaluating the therapeutic effectiveness of agents in reducing Alzheimer's disease pathology” (Roskamp Research Institute, LLC, priority 1999, dated 2004)", "format_in_all_cases": "cell-based, human", "key": {"CD40 [1]": {"tested_on": "CD40", "test": "CD40 cell-surface expression on HAEC, flow cytometry", "details": "Aβ 500 nM, IFN-γ 10 U/mL; vs control peptide or Aβ-free", "protocol": "Cultured HAEC were treated as described above. […] Cells were analyzed on a FACScan flow cytometer (Becton-Dickinson, Mountain View, Calif.) using LYSIS-II software. CD40-expressing cells are defined as percentage of CD40-staining cells minus the percentage of IgG1-staining cells.\nCD40 expression between control peptide-treated and Aβ-free AEC was relatively similar."}, "CD40 [2]": {"tested_on": "CD40", "test": "CD40 expression in HAEC, cell-ELISA (CELISA)", "protocol": "(§1) In vitro measurement of Aβ-induced changes in expression of the inflammatory cell-surface molecules CD40 and […] in cultured HAEC and HASM cells was performed using a slightly modified ABC-based cell-ELISA (CELISA). […] After PBS washes, 4% neutral formalin solution (Sigma) was used for fixation of the cells. Following quenching of the endogenous peroxidase activity with 3% H2O2 and routine blocking of non-specific binding, the biotinylated specific secondary antibodies against the primary antibodies (goat anti-mouse or anti-rabbit IgG) were applied. The combination of EXTRAVIDIN® Proxidase and the subsequent color reaction was performed strictly according to the manufacturer's instructions in the EXTRAVIDIN® Peroxidase Staining Kit (Sigma). The absorbance of 405 nm was then measured using a microplate reader (SPECTRAmax 250, Molecular Devices). The optical density (O.D.) value for the wells in the absence of the primary antibody for each group was considered as background and subtracted as the blank. In addition, stimulation with IFN-γ for CD40 was included as a positive control in the appropriate plate. Since CD45 is not expressed by endothelial or smooth muscle cells, the assays for expression of CD45 in these Aβ-treated cells were used as negative controls throughout the experiment. In addition, to evaluate the degree of cell death or proliferation in the Aβ-treated, cells, parallel experiments were performed using the MTS (3-(4,5-dimethylthiazol-2-yl)-5-(3-carboxymethoxyphenyl)-2-(4-sulfophenyl)-2H-tetrazolium) cell-proliferation kit (Promega)."}, "IFN-γR [3]": {"tested_on": "IFN-γR", "test": "IFN-γR expression in HASM cells, cell-ELISA (CELISA)", "details": "Aβ-treated cells, 1 μg/ml mAb, four hours", "protocol": "as §1\n(§2) Activation of CD40 signalling can be achieved by stimulation with either CD40L or certain anti-CD40 mAbs. Since synthetic CD40L is not commercially available, one of the anti-CD40 mAbs (clone 3/23), which has been reported to activate CD40 signalling, was used to mimic the effect of interaction of CD40-CD40L. All Aβ-treated cells were incubated with 1 μg/ml anti-CD40 mAb […]) for four hours followed by CELISA."}, "IFN-γR [4]": {"tested_on": "IFN-γR", "test": "IFN-γR expression in HAEC, cell-ELISA (CELISA) and Western blotting", "protocol": "as §1, §2\nThe total protein was estimated using the Bio-Rad protein assay. An aliquot corresponding to 100 μg of total protein of each sample was separated by SDS/PAGE (polyacrylamide gel electrophoresis) and transferred electrophoretically to PVDF filters. Non-specific binding of antibody was blocked with 5% non-fat dry milk, in 20 mM Tris/HCl, pH 7.5/150 mM NaCl/0.1% Triton X-100. Immunoblotting was carried out with the appropriate antibody followed by alkaline phosphatase-conjugated secondary anti-immunoglobulin antibodies. These were then developed by the chemiluminescence method (Bio-Rad)."}}}
{"substance": "Aβ1-42: amyloid β peptide 1-42, freshly solubilized", "values": [{"measurement": "CD40 cell-surface expression, flow cytometry", "setting": "CD40 [1]", "value": "significantly induce CD40 expression"}, {"measurement": "CD40 expression in HAEC, dose dependence", "setting": "CD40 [2]", "value": "dose-dependently increase CD40 expression"}, {"measurement": "lowest effective concentration for CD40 expression", "setting": "CD40 [2]; HAEC", "value": 100, "unit": "nM"}, {"measurement": "IFN-γR expression in HASM cells on CD40 ligation by mAb (3/23)", "setting": "IFN-γR [3]", "value": "additive"}, {"measurement": "Aβ-induced IFN-γR expression in HAEC on CD40 ligation", "setting": "IFN-γR [4]; 1 μg/ml mAb (3/23), four hours", "value": "significant effect"}, {"measurement": "IFN-γR expression in HAEC", "setting": "IFN-γR [4]; 48 hours", "value": "preferentially activates endothelial cells rather than smooth muscle cells"}]}
